Source: patent US20240336981A1, “PANELS AND METHODS FOR DIAGNOSING AND TREATING LUNG CANCER” (The Broad Institute, Inc., priority 2021, published 2024)

Key:
non-CDK kinases = settings: with the exception of GSK3beta; cited from earlier work
CDK3 and CDK7 = settings: cited from earlier work
[1] = tested on: lung adenocarcinoma (LUAD) cell lines; assay: Proliferation assay (IncuCyte confluency); type: cell-based; settings: for proliferation (response) of S3 cell lines compared to the S4 and unassigned cell lines: S3 lines HCC78, HCC827, NCIH1975, NCIH1838, 4 days
Description: lung adenocarcinoma (LUAD) cell lines were used (HCC78, HCC827, NCIH1975, NCIH1838, NCIH1395, NCIH1833, NCIH1755, ABC1, CALU3). Tests for mycoplasma contamination were negative. Cells were maintained in RPMI 1640 medium supplemented with 10% fetal bovine serum and 1% penicillin-streptomycin.
The media and drugs were replenished every 2-3 days. Continuous cell growth was monitored in 96-well plates every 3 hr for 4 days using the IncuCyte Kinetic Imaging System. The relative confluency was analyzed using IncuCyte software. The reported response percentage for each cell line was calculated as the percent of confluency compared to their DMSO treated counterpart. Proliferation assays were repeated 4 times.

EGFR = EGFR (Homo sapiens, UniProt P00533); settings: cited from earlier work
HER-3 = HER-3 (Homo sapiens, UniProt P21860); settings: cited from earlier work
[2] = tested on: tumor-bearing animal models such as breast, colon, lung cancers, and hepatocellular carcinoma; settings: in vivo; cited from earlier work
BLK = BLK (Homo sapiens, UniProt P51451); settings: in vitro; cited from earlier work
HER4 = HER4 (Homo sapiens, UniProt Q15303); settings: in vitro; cited from earlier work
HER2 = HER2 (Homo sapiens, UniProt P04626); settings: in vitro; cited from earlier work
[3] = tested on: mutant forms of EGFR (T790M, L858R, and exon 19 deletion); settings: exon 19 deletion vs wild-type; cited from earlier work
PD-L1 = assay: Immunofluorescence staining with anti-PD-L1 antibody; type: cell-based; settings: tivantinib-treated cells vs controls; all subtypes; quantified with ImageJ
Method: The following antibody was used for immunofluorescence staining—Recombinant Alexa Fluor® 488 Anti-PD-L1 antibody (ab209959). […] Cells were then fixed in 4% paraformaldehyde for 10 min and washed twice in cold PBS. Fluor® 488 Anti-PD-L1 antibody was added for 1 hr incubation in a light protected environment at room temperature followed by staining nuclei with DAPI. Fluorescence images were captured using Invitrogen™ EVOS™ FL Imaging System by Thermo Fisher Scientific. The fluorescent increase was further quantified using ImageJ software.

Chain of BLK (P51451 whole entry): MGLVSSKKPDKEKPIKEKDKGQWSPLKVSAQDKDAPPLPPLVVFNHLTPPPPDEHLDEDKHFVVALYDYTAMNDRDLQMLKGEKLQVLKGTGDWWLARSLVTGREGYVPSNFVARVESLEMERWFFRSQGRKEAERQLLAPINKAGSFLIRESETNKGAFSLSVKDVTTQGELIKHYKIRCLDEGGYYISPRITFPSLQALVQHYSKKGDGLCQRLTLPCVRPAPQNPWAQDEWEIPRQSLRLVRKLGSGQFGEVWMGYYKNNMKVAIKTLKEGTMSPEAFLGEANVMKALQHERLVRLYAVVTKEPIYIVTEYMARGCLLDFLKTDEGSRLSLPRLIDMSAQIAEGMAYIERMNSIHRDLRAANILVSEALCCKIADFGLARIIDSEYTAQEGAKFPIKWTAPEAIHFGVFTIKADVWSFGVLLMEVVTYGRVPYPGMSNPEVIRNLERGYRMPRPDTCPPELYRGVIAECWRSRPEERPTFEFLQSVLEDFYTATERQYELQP
Chain of HER4 (Q15303 26-1308): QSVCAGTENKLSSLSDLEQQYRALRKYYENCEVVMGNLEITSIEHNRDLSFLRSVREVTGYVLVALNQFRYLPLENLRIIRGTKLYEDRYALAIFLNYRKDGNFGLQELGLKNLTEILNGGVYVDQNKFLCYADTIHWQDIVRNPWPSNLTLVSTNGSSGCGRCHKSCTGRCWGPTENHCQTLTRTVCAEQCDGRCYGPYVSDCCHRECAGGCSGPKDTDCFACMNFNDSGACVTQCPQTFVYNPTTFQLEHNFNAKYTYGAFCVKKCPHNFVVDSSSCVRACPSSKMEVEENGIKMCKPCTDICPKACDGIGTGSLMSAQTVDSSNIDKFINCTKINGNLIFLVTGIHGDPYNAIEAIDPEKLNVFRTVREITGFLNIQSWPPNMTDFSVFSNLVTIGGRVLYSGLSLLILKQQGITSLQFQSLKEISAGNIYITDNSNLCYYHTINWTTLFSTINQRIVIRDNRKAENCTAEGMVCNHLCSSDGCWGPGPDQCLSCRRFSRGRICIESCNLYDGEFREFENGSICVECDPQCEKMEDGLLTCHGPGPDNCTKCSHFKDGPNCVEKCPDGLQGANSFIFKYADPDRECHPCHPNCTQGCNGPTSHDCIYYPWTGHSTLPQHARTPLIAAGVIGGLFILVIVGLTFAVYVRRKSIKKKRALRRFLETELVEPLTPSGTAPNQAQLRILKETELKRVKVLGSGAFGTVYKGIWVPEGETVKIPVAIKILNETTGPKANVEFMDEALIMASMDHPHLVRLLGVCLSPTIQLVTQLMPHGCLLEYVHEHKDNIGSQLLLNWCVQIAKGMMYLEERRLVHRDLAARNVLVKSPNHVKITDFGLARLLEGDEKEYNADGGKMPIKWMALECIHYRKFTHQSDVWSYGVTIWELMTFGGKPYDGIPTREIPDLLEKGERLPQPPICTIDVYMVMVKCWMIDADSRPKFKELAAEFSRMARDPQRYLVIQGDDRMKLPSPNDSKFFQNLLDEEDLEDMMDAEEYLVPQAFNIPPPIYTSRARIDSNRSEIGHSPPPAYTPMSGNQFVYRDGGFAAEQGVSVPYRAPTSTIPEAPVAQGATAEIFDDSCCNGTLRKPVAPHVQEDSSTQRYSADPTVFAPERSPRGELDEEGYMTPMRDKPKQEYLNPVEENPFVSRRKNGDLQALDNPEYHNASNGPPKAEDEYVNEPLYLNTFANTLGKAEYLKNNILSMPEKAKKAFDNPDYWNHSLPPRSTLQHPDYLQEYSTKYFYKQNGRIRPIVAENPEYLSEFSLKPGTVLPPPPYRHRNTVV
Chain of HER-3 (P21860 20-1342): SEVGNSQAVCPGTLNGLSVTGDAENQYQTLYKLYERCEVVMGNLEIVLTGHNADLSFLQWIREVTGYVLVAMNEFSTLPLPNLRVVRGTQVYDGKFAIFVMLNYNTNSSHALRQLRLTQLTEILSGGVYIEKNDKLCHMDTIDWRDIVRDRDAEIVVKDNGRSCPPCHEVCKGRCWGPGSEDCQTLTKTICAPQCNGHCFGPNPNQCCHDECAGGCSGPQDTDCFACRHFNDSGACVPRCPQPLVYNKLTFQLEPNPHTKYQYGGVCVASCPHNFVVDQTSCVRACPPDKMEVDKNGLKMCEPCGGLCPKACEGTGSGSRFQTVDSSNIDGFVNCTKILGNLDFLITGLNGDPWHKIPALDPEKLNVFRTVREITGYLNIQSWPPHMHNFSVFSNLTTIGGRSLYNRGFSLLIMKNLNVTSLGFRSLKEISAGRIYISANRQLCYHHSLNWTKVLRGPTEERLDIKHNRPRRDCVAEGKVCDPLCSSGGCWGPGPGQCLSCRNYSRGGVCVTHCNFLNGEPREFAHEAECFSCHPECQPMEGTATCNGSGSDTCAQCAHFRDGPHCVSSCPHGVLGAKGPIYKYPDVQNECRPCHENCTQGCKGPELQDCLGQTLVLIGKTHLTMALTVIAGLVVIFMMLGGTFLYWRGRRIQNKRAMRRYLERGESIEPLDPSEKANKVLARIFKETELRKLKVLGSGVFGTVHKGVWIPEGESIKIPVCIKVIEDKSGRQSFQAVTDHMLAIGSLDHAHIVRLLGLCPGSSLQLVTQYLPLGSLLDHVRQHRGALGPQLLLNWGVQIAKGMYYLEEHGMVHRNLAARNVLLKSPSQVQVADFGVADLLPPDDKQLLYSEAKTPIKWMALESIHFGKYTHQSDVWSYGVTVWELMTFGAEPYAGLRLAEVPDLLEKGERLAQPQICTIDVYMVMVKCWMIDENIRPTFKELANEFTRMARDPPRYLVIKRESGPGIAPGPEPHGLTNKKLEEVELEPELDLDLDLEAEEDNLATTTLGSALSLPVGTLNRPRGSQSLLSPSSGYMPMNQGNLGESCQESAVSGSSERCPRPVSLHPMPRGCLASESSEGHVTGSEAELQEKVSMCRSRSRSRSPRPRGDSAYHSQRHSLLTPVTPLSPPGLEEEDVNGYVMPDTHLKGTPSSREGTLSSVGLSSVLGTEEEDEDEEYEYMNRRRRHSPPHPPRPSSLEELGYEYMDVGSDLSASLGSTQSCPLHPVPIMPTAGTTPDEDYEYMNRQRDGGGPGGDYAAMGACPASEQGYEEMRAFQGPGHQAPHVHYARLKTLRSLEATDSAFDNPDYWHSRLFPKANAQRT
Chain of HER2 (P04626 23-1255): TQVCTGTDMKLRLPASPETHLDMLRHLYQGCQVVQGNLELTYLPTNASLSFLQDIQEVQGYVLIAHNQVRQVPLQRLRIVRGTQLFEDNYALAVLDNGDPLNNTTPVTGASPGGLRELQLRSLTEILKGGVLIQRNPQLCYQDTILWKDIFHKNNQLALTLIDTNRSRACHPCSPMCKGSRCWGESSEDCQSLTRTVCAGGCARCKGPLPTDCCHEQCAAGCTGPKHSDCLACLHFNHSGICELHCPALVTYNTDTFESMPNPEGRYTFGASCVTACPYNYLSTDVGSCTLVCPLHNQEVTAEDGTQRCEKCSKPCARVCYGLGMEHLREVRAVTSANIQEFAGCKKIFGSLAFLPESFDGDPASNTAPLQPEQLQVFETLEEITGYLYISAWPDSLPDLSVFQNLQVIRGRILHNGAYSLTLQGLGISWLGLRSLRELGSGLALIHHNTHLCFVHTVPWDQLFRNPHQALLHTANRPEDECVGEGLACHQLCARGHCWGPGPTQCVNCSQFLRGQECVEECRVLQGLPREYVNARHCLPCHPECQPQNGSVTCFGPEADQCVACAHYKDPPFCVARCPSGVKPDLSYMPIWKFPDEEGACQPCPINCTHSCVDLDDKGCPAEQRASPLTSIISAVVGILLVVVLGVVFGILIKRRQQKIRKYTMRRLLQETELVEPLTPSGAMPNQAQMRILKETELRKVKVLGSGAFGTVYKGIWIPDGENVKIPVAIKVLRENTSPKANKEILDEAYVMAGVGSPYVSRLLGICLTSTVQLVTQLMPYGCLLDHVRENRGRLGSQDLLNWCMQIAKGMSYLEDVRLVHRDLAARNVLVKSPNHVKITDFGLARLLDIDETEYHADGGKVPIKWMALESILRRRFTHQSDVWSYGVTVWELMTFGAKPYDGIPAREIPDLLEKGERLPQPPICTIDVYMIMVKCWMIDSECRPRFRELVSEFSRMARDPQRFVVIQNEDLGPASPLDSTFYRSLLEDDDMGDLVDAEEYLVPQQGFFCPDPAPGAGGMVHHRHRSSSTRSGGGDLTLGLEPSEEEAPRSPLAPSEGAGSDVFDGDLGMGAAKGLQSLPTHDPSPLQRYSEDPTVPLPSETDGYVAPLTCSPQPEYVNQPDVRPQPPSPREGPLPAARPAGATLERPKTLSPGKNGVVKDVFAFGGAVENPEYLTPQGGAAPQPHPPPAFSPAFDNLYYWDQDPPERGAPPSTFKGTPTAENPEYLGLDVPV

O=C(NC1CCNCC1)c1n[nH]cc1NC(=O)c1c(Cl)cccc1Cl [AT7519]
activity against non-CDK kinases tested (non-CDK kinases): inactive | potency against other CDKs tested (CDK3 and CDK7): lower potency

CCNc1cc(N[C@H]2CC[C@H](O)CC2)nc(Nc2ccc3c(ccn3Cc3ccccc3)c2)n1 [CINK4]
proliferation (response) of S3 cell lines compared to the S4 and unassigned cell lines ([1]; CDK4/6 Inhibitor IV 1.5 μM (CDK4 specific concentration), confluency vs DMSO): significantly lower proliferation (higher response)

CNC(=O)c1ccc(-c2cnc3ncc(Cc4ccc5ncccc5c4)n3n2)cc1F [Capmatinib]
activity against EGFR (EGFR): ATP-competitive small molecule. Targets - c-Met. Little activity against EGFR and HER- 3. | activity against HER-3 (HER-3): ATP-competitive small molecule. Targets - c-Met. Little activity against EGFR and HER- 3.

Cc1cccc(-c2nn3c(c2-c2ccnc4ccc(C(N)=O)cc24)CCC3)n1 [Galunisertib]
antitumor activity [2]: antitumor activity

C=CC(=O)Nc1cc(Nc2ncc(C(=O)OC(C)C)c(-c3cn(C)c4ccccc34)n2)c(OC)cc1N(C)CCN(C)C [Mobocertinib]
IC50 (BLK): < 2 nM | IC50 (HER4): < 2 nM | IC50 (HER2): < 2 nM

C=CC(=O)Nc1cc(Nc2nccc(-c3cn(C)c4ccccc34)n2)c(OC)cc1N(C)CCN(C)C [Osimertinib]
concentrations for binding mutant EGFR lower than wild-type [3]: approximately 9 fold

CC(=O)c1c(C)c2cnc(Nc3ccc(N4CCNCC4)cn3)nc2n(C2CCCC2)c1=O [Palbociclib]
proliferation (response) of S3 cell lines compared to the S4 and unassigned cell lines ([1]; Palbociclib 11 nM (CDK4 concentration), confluency vs DMSO): significantly lower proliferation (higher response) | proliferation at higher doses ([1]; higher doses of palbociclib (CDK4/6 concentration 16 nM), all cell lines): inhibited proliferation in all cell lines

O=C1NC(=O)[C@@H](c2cn3c4c(cccc24)CCC3)[C@@H]1c1c[nH]c2ccccc12 [Tivantinib]
PD-L1 levels in response to c-MET inhibition (PD-L1): significant increase | response of S3 compared to the other assigned groups ([1]; Tivantinib 3 μM, 4-day proliferation assay, confluency vs DMSO): significantly increased response
